Data published in patent publication US20110124842A1 (priority 2003, published 2011).
Where two headings read alike, the source gives them in different places. Bridges are numbered along the chain shown (N, C = ends). Where no end group is shown, it is not given here. [ ]: non-standard residue; d: D form. code O = not defined here; Orn = NCCC[C@H](N)C(=O)O; Aib = CC(C)(N)C(=O)O

Tests used:
IgG 4E10 = assay: Competitive ELISA (IC50): peptide competes with biotinylated 4E10-epitope peptide for IgG 4E10; type: binding, human; details: for increased binding affinity in comparison with its peptide control: 33-1 vs control 44-1, 104-2 vs control 104-1, ELISA; for higher affinity of 4E10 than to the original peptide KGND: as determined by surface plasmon resonance and ELISA
Procedure: IC50, were determined by competitive ELISA using a constant concentration of biotinylated peptide and IgG with a variable concentration of gp41 peptides. Microwells were coated overnight at 4° C. with 50 μl PBS containing neutravidin (Pierce; 4 μg/ml). […] A mixture of a biotinylated 4E10-epitope peptide, […](biotin)-NH2 (SEQ ID NO: 88) (20 nM), IgG 4E10 (0.2 nM), and the competing peptide analog (3-fold dilution series starting at 10 μM) in 0.4% non-fat dry milk, 0.02% Tween and PBS was incubated in a separate 96-well plate at 37° C. for 2 hours. After washing the blocked plate, the mixture of 4E10, biotinylated peptide and competing peptide was added to the wells. After 20 minutes at room temperature, the Wells were washed five times, and a 1:500 dilution of goat anti-human IgG F(ab′)2 HRP conjugate (Pierce) was added. Following incubation at RT for 40 minutes, the wells were washed five times, and developed by adding 50 μl of TMB solution (Pierce) according to the manufacturer's instructions. After ˜20 minutes, wells containing TMB solution were stopped by adding 50 μl of H2SO4 (2M) and the O.D. at 450 nm was read on a microplate reader (Molecular Devices). The concentration of competitor peptide corresponding to a half-maximal signal (IC50) was determined by interpolation of the resulting binding curve. Each peptide competitor was tested in duplicate in at least two separate experiments.
IC50s were determined by competitive ELISA using a constant concentration of biotinylated peptide and IgG with a variable concentration of gp41 peptides. Microwells were coated overnight at 4° C. with 50 μl PBS containing neutravidin (Pierce; 4 μg/ml). […] Meanwhile, a mixture of a biotinylated 4E10-peptide epitope, […](biotin)-NH2 (SEQ ID NO: 88), (20 nM), IgG 4E10 (0.2 nM), and the competing peptide analogue (3-fold dilution series starting at 10 μM) in 0.4% NFDM, 0.02% Tween and PBS was incubated in a separate 96-well plate at 37° C. for 2 h. After washing the blocked plate, the mixture of 4E10, biotinylated peptide and competing peptide was added to the wells. After 20 min at room temperature, the wells were washed five times, and a 1:500 dilution of goat anti-human IgG F(ab′)2 HRP conjugate (Pierce) was added. Following incubation at RT for 40 min, the wells were washed five times, and developed by adding 50 μl of H2SO4 (2 M), and the O.D. at 450 nm was read on a microplate reader (Molecular Devices). The concentration of competitor peptide corresponding to a half-maximal signal (IC50) was determined by interpolation of the resulting binding curve. Each peptide competitor was tested in duplicate in at least two separate experiments.

Fab 4E10 [1] = assay: Surface plasmon resonance (Biacore 2000), Fab 4E10 on CM5 chip; type: binding, human
Sequence of Fab 4E10 (heavy, as listed by the source): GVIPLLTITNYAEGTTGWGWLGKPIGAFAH
Procedure: The affinitiefs of the peptide analogs for 4E10 were also measured by surface plasmon resonance. Surface plasmon resonance experiments were performed using a Biacore 2000 instrument (Uppsala, Sweden). Around 2,200 response units (RU) of Fab 4E10 were coated on CM5 chips. The carboxyl groups on the chip were activated with 1-ethyl-3-(3-dimethylaminopropyl)carbodiimide hydrochloride (EDC) and N-hydroxysuccinimide (NHS). Fifty micrograms of Fab were diluted in 10 mM sodium acetate pH 4.5; a flow rate of 5 μl/min was used. Unreacted carboxyl groups were blocked with 1M ethanolamine at pH 8.5. The control was treated in the same fashion without any antibody present. Different amounts of free peptides were then passed over the surfaces at 30 or 50 μl/min for 2 min. Regeneration was done in HPS-EP buffer, 0.25 NaCl (Biacore) in 10 minutes. The amount of salt was increased compared to the commercial buffer to reduce the non-specific binding. For data evaluation, the BIAevaluation software was used. RI and Rmax were controlled, double referencing were done (0 concentration and start point). Analyses were performed to achieve the best curve fitting and small chi^2 (<1).
Surface plasmon resonance experiments were performed using a Biacore 2000 instrument (Uppsala, Sweden).
Chip preparation: around 2,200 response units (RU) of Fab 4E10 were coated on CM5 chips. The carboxyl groups on the chip were activated with 1-ethyl-3-(3-dimethylaminopropyl) carbodiimide hydrochloride (EDC) and N-hydroxysuccinimide (NHS). Fifty micrograms of Fab was diluted in 10 mM sodium acetate pH 4.5; a flow rate of 5 μl/min was used. Unreacted carboxyl groups were blocked with 1M ethanolamine at pH 8.5. The control was treated in the same fashion without any antibody present.
Experiment: different amounts of free peptides were then passed over the surfaces at 30 or 50 μl/min for 2 min. Regeneration was done in HPS-EP buffer, 0.25 NaCl (Biacore) in 10 min. The amount of salt was increased compared to the commercial buffer to reduce the non-specific binding.
Data evaluation: the BIAevaluation software was used. RI and Rmax were controlled, double referencing were done (0 concentration and start point). Analyses were performed to achieve the best curve fitting and small chi^2 (<1).

[2] = target: recombinant IgG1(kappa) 4E10; assay: competitive ELISA: peptide against biotinylated …(biotin)-NH2 for IgG 4E10
Sequence of recombinant IgG1(kappa) 4E10 (heavy, as listed by the source): as above

[3] = target: recombinant IgG1(kappa) 4E10; assay: competitive ELISA
Fab 4E10 [4] = assay: SPR (Biacore 2000), Fab 4E10 on CM5 chip, peptide in flow
[5] = Table 6, constrained analogs, 4E10 binding, read-out: IC50
[6] = read-out: IC50 (4E10 binding, competitive ELISA)
[7] = Table 5, unconstrained peptide analogs, 4E10 binding, read-out: IC50
[8] = Table 7, 4E10 peptide epitopes, read-out: IC50
[9] = Table 7, 4E10 peptide epitopes, read-out: Kd
[10] = Table 6, constrained analogs, 4E10 binding, read-out: Kd

KKBNWFDITNWLWKBKBK-NH2 (KKXNWFDITNWLWKXKXK-NH2; not fully specified (residues 3, 15, 17); printed as KKBNWFDITNWLWKBKBK-NH2) [Peptide 102-2]
IC50 (IgG 4E10; [5]): 10 nM

SLWNWFDITNWLWYIKKKK [SLWNWFDITNWLWYIKKKK-NH2]
IC50 (IgG 4E10; [6]): 10 nM

NWFDITNWLWKBKBK-NH2 [Peptide 102-1]
IC50 (IgG 4E10; [6]): 10 nM

SLWNWFDITNWLWKKKK [Peptide 84-4, SLWNWFDITNWLWKKKK-NH2]
IC50 (IgG 4E10; [7]): 120 nM

NWFDITNWLWRR [Peptide 44-1, NWFDITNWLWRR-NH2]
IC50 (IgG 4E10; [8]): 600 nM

KGWNWFDITNWGK [KGND]
IC50 (IgG 4E10; [7]): > 10000 nM
IC50 (IgG 4E10; [5]): > 10000 nM
IC50 (IgG 4E10; [8]): > 10000 nM
IC50 (IgG 4E10; [6]): 10000 nM

WNWFDITNWLWKKKK [Peptide 84-2, WNWFDITNWLWKKKK-NH2]
IC50 (IgG 4E10; [7]): 120 nM

NWFDITN-Aib-LWRR-NH2 [Peptide 33-1]
increased binding affinity in comparison with its peptide control (IgG 4E10): 3 fold
IC50 (IgG 4E10; [8]): 100 to 400 nM
higher affinity of 4E10 than to the original peptide KGND (IgG 4E10): approximately 10^3 fold
koff (Fab 4E10 [1]; Table 7): 0.13 s⁻¹
kon (Fab 4E10 [1]; Table 7): 431000 M⁻¹ s⁻¹
Kd (Fab 4E10 [1]; [9]): 302 nM

NWFDITNWLWKKKK [Peptide 84-1, NWFDITNWLWKKKK-NH2]
IC50 (IgG 4E10; [6]): 40 nM
Kd (Fab 4E10 [1]; Table 5, unconstrained peptide analogs, 4E10 binding, read-out: Kd): 100 nM

NWFCITOWLWKKKK-NH2 (NWFCIT[code O]WLWKKKK-NH2; not fully specified; printed as NWFCITOWLWKKKK-NH2; reading uncertain) [Peptide 104-1]
IC50 (IgG 4E10; [7]): 40 nM
IC50 (IgG 4E10; [8]): 40 nM

NWFc(CITO)WLWKKKK-NH2 (NWFCIT[code O]WLWKKKK-NH2; bridge 4-7; reading uncertain; also: printed as NWFc(CITO)WLWKKKK-NH2) [Peptide 104-2]
increased binding affinity in comparison with its peptide control (IgG 4E10): 4 fold
IC50 (IgG 4E10; [5]): 10 nM
IC50 (IgG 4E10; [8]): 10 nM
higher affinity of 4E10 than to the original peptide KGND (IgG 4E10): approximately 10^3 fold
IC50 (IgG 4E10; [6]): 10 nM
Kd (Fab 4E10 [1]; [10]): 17 nM
higher affinity of 4E10 than to peptide 33-1 (Fab 4E10 [1]; Table 7): about 17 fold
koff (Fab 4E10 [1]; Table 7): 0.0034 s⁻¹
kon (Fab 4E10 [1]; Table 7): 202000 M⁻¹ s⁻¹
Kd (Fab 4E10 [1]; [9]): 17 nM
Kd (Fab 4E10 [1]; read-out: Kd (Biacore)): 17 nM

c(CWFO)ITNWLWKKKK-NH2 (CWF[code O]ITNWLWKKKK-NH2; bridge 1-4; reading uncertain; also: printed as c(CWFO)ITNWLWKKKK-NH2) [Peptide 74-2]
IC50 (IgG 4E10; [5]): 230 nM
Kd (Fab 4E10 [1]; [10]): 276 nM

B1: peptide 102-1, …BKBK-NH2 (peptide)
peptide: NWFDITNWLWK[Aib]K[Aib]K-NH2
modifications: N-terminus assumed
SMILES: CC[C@H](C)[C@H](NC(=O)[C@H](CC(=O)O)NC(=O)[C@H](Cc1ccccc1)NC(=O)[C@H](Cc1c[nH]c2ccccc12)NC(=O)[C@@H](N)CC(N)=O)C(=O)N[C@H](C(=O)N[C@@H](CC(N)=O)C(=O)N[C@@H](Cc1c[nH]c2ccccc12)C(=O)N[C@@H](CC(C)C)C(=O)N[C@@H](Cc1c[nH]c2ccccc12)C(=O)N[C@@H](CCCCN)C(=O)NC(C)(C)C(=O)N[C@@H](CCCCN)C(=O)NC(C)(C)C(=O)N[C@@H](CCCCN)C(N)=O)[C@@H](C)O
IC50 [2]: 10 nM

B2: peptide 104-1, NWFCITOWLWKKKK-NH2 (acyclic control) (peptide)
peptide: NWFCIT[Orn]WLWKKKK-NH2
modifications: not fully specified; printed as NWFCITOWLWKKKK-NH2
IC50 [2]: 40 nM

B3: peptide 33-1, NWFDITN-Aib-LWRR-NH2 (peptide)
peptide: NWFDITN[Aib]LWRR-NH2
modifications: N-terminus assumed
SMILES: CC[C@H](C)[C@H](NC(=O)[C@H](CC(=O)O)NC(=O)[C@H](Cc1ccccc1)NC(=O)[C@H](Cc1c[nH]c2ccccc12)NC(=O)[C@@H](N)CC(N)=O)C(=O)N[C@H](C(=O)N[C@@H](CC(N)=O)C(=O)NC(C)(C)C(=O)N[C@@H](CC(C)C)C(=O)N[C@@H](Cc1c[nH]c2ccccc12)C(=O)N[C@@H](CCCNC(=N)N)C(=O)N[C@@H](CCCNC(=N)N)C(N)=O)[C@@H](C)O
IC50 [2]: 100 to 400 nM
fold increase of binding affinity over its control peptide 44-1 [3]: 3 fold
Kd (Fab 4E10 [4]): 302 nM
koff (Fab 4E10 [4]): 0.13 s⁻¹
kon (Fab 4E10 [4]): 431000 M⁻¹ s⁻¹

B4: peptide 102-2, KKB…BKBK-NH2 (peptide)
peptide: KK[Aib]NWFDITNWLWK[Aib]K[Aib]K-NH2
modifications: N-terminus assumed
SMILES: CC[C@H](C)[C@H](NC(=O)[C@H](CC(=O)O)NC(=O)[C@H](Cc1ccccc1)NC(=O)[C@H](Cc1c[nH]c2ccccc12)NC(=O)[C@H](CC(N)=O)NC(=O)C(C)(C)NC(=O)[C@H](CCCCN)NC(=O)[C@@H](N)CCCCN)C(=O)N[C@H](C(=O)N[C@@H](CC(N)=O)C(=O)N[C@@H](Cc1c[nH]c2ccccc12)C(=O)N[C@@H](CC(C)C)C(=O)N[C@@H](Cc1c[nH]c2ccccc12)C(=O)N[C@@H](CCCCN)C(=O)NC(C)(C)C(=O)N[C@@H](CCCCN)C(=O)NC(C)(C)C(=O)N[C@@H](CCCCN)C(N)=O)[C@@H](C)O
IC50 [2]: 10 nM

B5: peptide 44-1, …-NH2 (peptide)
peptide: NWFDITNWLWRR-NH2
IC50 [2]: 600 nM

B6: peptide 84-2, …-NH2 (peptide)
peptide: WNWFDITNWLWKKKK-NH2
IC50 [2]: 120 nM

B7: peptide 74-2, c(CWFO)…-NH2 (peptide)
peptide: CWFXITNWLWKKKK
modifications: cyclic thioether between Cys 1 and ornithine (O) 4; C-terminal amide
IC50 [2]: 230 nM
Kd (Fab 4E10 [4]): 276 nM

B8: peptide 119, …BKBKK-NH2 (peptide)
peptide: NWFDITNWLWYIKXKXKK
modifications: B = Aib at positions 14 and 16; C-terminal amide
IC50 [2]: 10 nM

B9: peptide 104-2, NWFc(CITO)WLWKKKK-NH2 (peptide)
peptide: NWFCIT[Orn]WLWKKKK-NH2
modifications: bridge 4-7; not fully specified (bridges); printed as peptide 104-2, NWFc(CITO)WLWKKKK-NH2
IC50 [2]: 10 nM
fold increase of affinity over its control peptide 104-1 [3]: 4 fold
Kd (Fab 4E10 [4]): 17 nM
koff (Fab 4E10 [4]): 0.0034 s⁻¹
kon (Fab 4E10 [4]): 202000 M⁻¹ s⁻¹

B10: peptide KGND (…) (peptide)
peptide: KGWNWFDITNWGK
modifications: not fully specified
IC50 [2]: > 10000 nM
